Reference: US20210330611A1, “THERAPY FOR NEUROLOGICAL DISEASES/DISORDERS” (priority 2020, published 2021)
Counter-ions that a name gives are not always drawn. Like-named read-outs stand apart in the source and are kept apart here.

Key:
[1] = test system: LPS-induced microglia activation; test: Image-based assay of LPS-induced microglia activation (HTS and dose response); assay type: cell-based, rat; conditions: for inhibition at 10 µM: Rattus norvegicus, Microglia, read-out: LPS % inhibition
[2] = test system: fibrin- and LPS-induced microglia activation; test: cells; assay type: cell-based, rat
primary rat microglia [3] = test: Cell toxicity (dead cells, size <150 μm2) in LPS assay
primary rat microglia [4] = test: Cell toxicity (dead cells, size <150 μm2) in coated fibrin (cFib) assay;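 also: share of dead cells sized under 150 µm2 at 10 µM in fibrin-stimulated microglia HTS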
[5] = test system: fibrin-induced microglia activation; test: Image-based assay of fibrin-induced microglia activation (HTS and dose response); assay type: cell-based, rat; conditions: for inhibition at 10 µM: Rattus norvegicus, Microglia, read-out: Fibrin % inhibition
[6] = 48 h, primary microglia HTS, LPS stimulation, activation = cell size >800 μm2
[7] = quadrant by fibrin and LPS inhibition in HTS of 1907 compounds
[8] = primary microglia HTS, LPS stimulation, toxicity = cell size <150 μm2
[9] = primary microglia HTS, fibrin stimulation, toxicity = cell size <150 μm2
[10] = primary microglia HTS, fibrin stimulation, activation = cell size >800 μm2
[11] = primary HTS, 10 μM, LPS-stimulated primary microglia
[12] = primary HTS, 10 μM, LPS assay, dead cells size <150 μm2
[13] = primary HTS, 10 μM, fibrin assay, dead cells size <150 μm2
[14] = primary HTS, 10 μM, fibrin-stimulated primary microglia
[15] = primary microglia HTS, LPS stimulation, activation = cell size >800 μm2
[16] = primary microglia HTS, 10 μM, LPS-stimulated, cell size >800 μm^2 as marker of activation
[17] = HTS of 1907 compounds, quadrant by fibrin and LPS inhibition
[18] = primary microglia HTS, 10 μM, LPS assay, cell size <150 μm^2 as marker of toxicity
[19] = primary microglia HTS, 10 μM, fibrin assay, cell size <150 μm^2 as marker of toxicity
[20] = primary microglia HTS, 10 μM, fibrin-stimulated, cell size >800 μm^2 as marker of activation
[21] = primary microglia HTS, LPS stimulation, increased cell size (>800 μm^2) as marker of activation
[22] = primary microglia HTS, LPS stimulation, decreased size (<150 μm^2) as marker of toxicity
[23] = primary microglia HTS, fibrin stimulation, decreased size (<150 μm^2) as marker of toxicity
[24] = primary microglia HTS, fibrin stimulation, increased cell size (>800 μm^2) as marker of activation
[25] = 48 h, primary microglia HTS, LPS stimulation, increased cell size (>800 μm^2) as marker of activation

Row | Compound | Quadrant (FIG. 5b) [2, 7] | LPS % cell toxicity (primary rat microglia [3]; [8]) [%] | Fibrin % cell toxicity (primary rat microglia [4]; [9]) [%] | inhibition at 10 µM [1, 11] [%] | Quadrant (FIG. 5b) ([2]; primary HTS, 10 μM) | LPS % cell toxicity (primary rat microglia [3]; [12]) [%] | Fibrin % cell toxicity (primary rat microglia [4]; [13]) [%] | inhibition at 10 µM [5, 14] [%] | other results
1 | Nc1nnc(-c2cccc(Cl)c2Cl)c(N)n1 [Lamotrigine] | Q4 | 0 | 1 |  |  |  |  |  | inhibition at 10 µM [1, 6]: 12%; inhibition at 10 µM [5, 10]: -12%
2 | CN(C)CCN(Cc1ccc(Cl)cc1)c1ccccn1 [Chloropyramine] |  |  |  | 13 | Q4 | 0 | 1 | 25 | 
3 | COc1ccc(C(=O)NCc2ccc(OCCN(C)C)cc2)cc1OC [Itopride, Itopride Hydrochloride] | Q4 | 0 | 0 |  |  |  |  |  | LPS % inhibition [1, 15]: 25%; Fibrin % inhibition [5, 10]: −49%
4 | CC1(C)S[C@@H]2[C@H](N3C(=O)[C@@H](c4ccccc4)NC3(C)C)C(=O)N2[C@H]1C(=O)O [Hetacillin Potassium] | Q4 | 1 | 0 |  |  |  |  |  | inhibition at 10 µM [1, 6]: 15%; inhibition at 10 µM [5, 10]: -15%
5 | N[C@@H](C(=O)N[C@@H]1C(=O)N2C(C(=O)O)=C(Cl)CS[C@H]12)c1ccccc1 [Cefaclor] |  |  |  | 19 | Q4 | 0 | 1 | -14 | 
6 | CC(C)CCC[C@@H](C)[C@H]1CC[C@H]2[C@@H]3CC=C4C[C@@H](O)CC[C@]4(C)[C@H]3CC[C@]12C [Cholesterol] |  |  |  | 9 | Q4 | 0 | 0 | 4 | 
7 | COC(=O)[C@@H]1[C@H]2C[C@H]3c4[nH]c5ccccc5c4CCN3C[C@@H]2CC[C@@H]1O [Yohimbine Hydrochloride] |  |  |  |  |  |  |  |  | LPS % inhibition [1, 16]: 19%; Quadrant (FIG. 5b) [2, 17]: Q4; LPS % cell toxicity (primary rat microglia [3]; [18]): 1%; Fibrin % cell toxicity (primary rat microglia [4]; [19]): 1%; Fibrin % inhibition [5, 20]: −8%
8 | Cc1onc(-c2ccccc2)c1C(=O)N[C@@H]1C(=O)N2[C@@H]1SC(C)(C)[C@@H]2C(=O)[O-].[Na+] [Oxacillin Sodium] | Q4 |  |  |  |  |  |  |  | LPS % inhibition [1, 21]: 11%; LPS % cell toxicity (primary rat microglia [3]; [22]): 0%; Fibrin % cell toxicity (primary rat microglia [4]; [23]): 0%; Fibrin % inhibition [5, 24]: −20%
9 | Cc1c(Nc2ncccc2C(=O)O)cccc1C(F)(F)F [Flunixin Meglumine] | Q4 | 0 | 1 |  |  |  |  |  | inhibition at 10 µM [1, 6]: 8%; inhibition at 10 µM [5, 10]: -6%
10 | CCC[C@@H]1C[C@@H](C(=O)N[C@@H]([C@H]2O[C@H](SC)[C@H](O)[C@@H](O)[C@H]2O)[C@@H](C)O)N(C)C1 [Lincomycin Hydrochloride] | Q4 | 0 | 1 |  |  |  |  |  | LPS % inhibition [1, 15]: 14%; Fibrin % inhibition [5, 10]: −4%
11 | CCCCOC(=O)c1ccc(O)cc1 [Butylparaben] |  |  |  | 20 | Q4 | 0 | 1 | -16 | 
12 | COc1ccccc1OCC(O)CO (stereo not drawn) [Guaifenesin] | Q4 | 0 | 0 |  |  |  |  |  | inhibition at 10 µM [1, 6]: 11%; inhibition at 10 µM [5, 10]: -15%
13 | Cc1cc(C2CCCCC2)n(O)c(=O)c1 [Ciclopirox] |  |  |  | 40 | Q4 | 1 | 1 | -1 | 
14 | CO[C@@]1(NC(=O)C(C(=O)O)c2ccc(O)cc2)C(=O)N2C(C(=O)O)=C(CSc3nnnn3C)CO[C@@H]21 (stereo partly drawn) [Latamoxef] | Q4 | 0 | 1 |  |  |  |  |  | inhibition at 10 µM [1, 6]: 22%; inhibition at 10 µM [5, 10]: -18%
15 | CN(C)CC/C=C1/c2ccccc2COc2ccc(CC(=O)O)cc21 [Olopatadine] | Q4 |  |  |  |  |  |  |  | inhibition at 10 µM [1, 25]: -9%; LPS % cell toxicity (primary rat microglia [3]; [22]): 0%; Fibrin % cell toxicity (primary rat microglia [4]; [23]): 1%; inhibition at 10 µM [5, 24]: -42%
16 | CCOC(=O)C1=C[C@@H](OC(CC)CC)[C@H](NC(C)=O)[C@@H](N)C1 [Oseltamivir] | Q4 |  |  |  |  |  |  |  | inhibition at 10 µM [1, 25]: 26%; LPS % cell toxicity (primary rat microglia [3]; [22]): 1%; Fibrin % cell toxicity (primary rat microglia [4]; [23]): 1%; Fibrin % inhibition [5, 24]: −28%
17 | Oc1ccc(OCc2ccccc2)cc1 [Monobenzone] | Q4 |  |  |  |  |  |  |  | inhibition at 10 µM [1, 25]: 16%; LPS % cell toxicity (primary rat microglia [3]; [22]): 0%; Fibrin % cell toxicity (primary rat microglia [4]; [23]): 1%; inhibition at 10 µM [5, 24]: 7%
18 | Oc1cc(Cl)ccc1Oc1ccc(Cl)cc1Cl [Triclosan] |  |  |  |  |  |  |  |  | inhibition at 10 µM [1, 16]: 16%; Quadrant (FIG. 5b) [2, 17]: Q4; LPS % cell toxicity (primary rat microglia [3]; [18]): 1%; Fibrin % cell toxicity (primary rat microglia [4]; [19]): 1%; inhibition at 10 µM [5, 20]: -6%
19 | Candicidin |  |  |  |  | Q4 | 0 | 1 |  | LPS % inhibition [1, 11]: 31%; Fibrin % inhibition [5, 14]: −41%
20 | NC(=O)N1c2ccccc2C=Cc2ccccc21 [Carbamazepine] |  |  |  | 4 | Q4 | 0 | 0 | -25 | 
21 | CCCCC(CC)CN1CN(CC(CC)CCCC)CC(C)(N)C1 (stereo not drawn) [Hexetidine] | Q4 | 0 | 1 |  |  |  |  |  | inhibition at 10 µM [1, 6]: 19%; inhibition at 10 µM [5, 10]: -85%
22 | COc1cc(C(=O)NCc2ccc(OCCN(C)C)cc2)cc(OC)c1OC [Trimethobenzamide] |  |  |  |  |  |  |  |  | inhibition at 10 µM [1, 16]: 17%; Quadrant (FIG. 5b) [2, 17]: Q4; LPS % cell toxicity (primary rat microglia [3]; [18]): 0%; Fibrin % cell toxicity (primary rat microglia [4]; [19]): 1%; inhibition at 10 µM [5, 20]: 16%
23 | N=C(N)N/N=C/c1c(Cl)cccc1Cl [Guanabenz Acetate] | Q4 | 0 | 0 |  |  |  |  |  | LPS % inhibition [1, 15]: −2%; Fibrin % inhibition [5, 10]: −46%
24 | Nc1c2ccccc2nc2ccccc12 [Aminacrine] | Q2 |  |  |  |  |  |  |  | inhibition at 10 µM [1, 25]: 118%; LPS % cell toxicity (primary rat microglia [3]; [22]): 67%; Fibrin % cell toxicity (primary rat microglia [4]; [23]): 72%; inhibition at 10 µM [5, 24]: 117%
25 | CN1CCN(C(c2ccccc2)c2ccc(Cl)cc2)CC1 (stereo not drawn) [Chlorcyclizine] |  |  |  | 6 | Q4 | 0 | 1 | 9 | 
26 | CCN[C@H]1CN(CCCOC)S(=O)(=O)c2sc(S(N)(=O)=O)cc21 [Brinzolamide] |  |  |  | 5 | Q4 | 0 | 0 | -3 | 
27 | C[C@@H]1C/C=C/C=C/C=C/C=C/[C@H](O[C@@H]2O[C@H](C)[C@@H](O)[C@H](N)[C@@H]2O)C[C@@H]2O[C@](O)(C[C@@H](O)C[C@H]3O[C@@H]3/C=C/C(=O)O1)C[C@H](O)[C@H]2C(=O)O [Natamycin] | Q4 |  |  |  |  |  |  |  | inhibition at 10 µM [1, 25]: 35%; LPS % cell toxicity (primary rat microglia [3]; [22]): 0%; Fibrin % cell toxicity (primary rat microglia [4]; [23]): 1%; inhibition at 10 µM [5, 24]: -7%
28 | COc1ccc(CN2CCN(C(c3ccc(F)cc3)c3ccc(F)cc3)CC2)c(OC)c1OC [Lomerizine, Lomerizine Dihydrochloride] | Q4 | 0 | 1 |  |  |  |  |  | LPS % inhibition [1, 15]: 8%; Fibrin % inhibition [5, 10]: −5%
29 | O=C(Nc1ccc([N+](=O)[O-])cc1Cl)c1cc(Cl)ccc1O [Nicolsamide, Niclosamide] | Q4 |  |  |  |  |  |  |  | LPS % inhibition [1, 21]: 21%; LPS % cell toxicity (primary rat microglia [3]; [22]): 1%; Fibrin % cell toxicity (primary rat microglia [4]; [23]): 1%; Fibrin % inhibition [5, 24]: −2%
30 | CC(C)(C)C(=O)C(Oc1ccc(Cl)cc1)n1ccnc1 (stereo not drawn) [Climbazole] |  |  |  | 1 | Q4 | 0 | 1 | -10 | 
